Laboratory results from patent US10414769B2, “5,8-dimethyl-9-phenyl-5,8-dihydro-6H-pyrazolo[3,4-h]quinazolin-2-yl)-(1H-pyrazol-3-yl)-amines as IGF-1R/IR inhibitors” (Boehringer Ingelheim International GmbH, priority 2015, dated 2019).

Tests used:
Format in all cases: biochemical
CHEK1 (CHK1) = target: T1, CHEK1 (CHK1) (Homo sapiens, UniProt O14757); test: Z'-LYTE kinase selectivity assay CHEK1
T1 construct: purchased Life Technologies P 3040
T1 sequence (O14757 1-476): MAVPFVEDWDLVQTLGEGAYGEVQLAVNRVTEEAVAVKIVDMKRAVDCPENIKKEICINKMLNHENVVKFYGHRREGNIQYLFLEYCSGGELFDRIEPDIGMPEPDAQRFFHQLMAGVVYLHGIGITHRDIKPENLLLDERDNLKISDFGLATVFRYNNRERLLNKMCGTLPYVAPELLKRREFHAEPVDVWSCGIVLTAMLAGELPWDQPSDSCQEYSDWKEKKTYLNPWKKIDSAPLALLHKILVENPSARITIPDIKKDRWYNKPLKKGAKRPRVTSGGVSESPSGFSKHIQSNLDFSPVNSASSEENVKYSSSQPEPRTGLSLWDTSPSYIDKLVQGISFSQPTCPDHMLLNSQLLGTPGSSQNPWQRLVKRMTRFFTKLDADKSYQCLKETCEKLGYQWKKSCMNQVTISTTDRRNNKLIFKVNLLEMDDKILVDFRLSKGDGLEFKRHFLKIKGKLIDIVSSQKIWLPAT
Text: (§1) In order to compare the kinase selectivity of compounds (I) according to the invention with known prior art compounds the commercially provided SelectScreen® Kinase Profiling Service (Z′-LYTE®) was used (Life Technologies GmbH, Darmstadt, Germany) to investigate the ability of the compounds to inhibit a number of different, representatively selected human kinases. Further details regarding this service are available on the Life Technologies website at
(§2) The Z′-LYTE® biochemical assay employs a fluorescence-based, coupled-enzyme format and is based on the differential sensitivity of phosphorylated and non-phosphorylated peptides to proteolytic cleavage. The peptide substrate is labeled with two fluorophores—one at each end—that make up a FRET pair.
(§3) In the primary reaction, the kinase transfers the gamma-phosphate of ATP to a single tyrosine, serine or threonine residue in a synthetic FRET-peptide. In the secondary reaction, a site-specific protease recognizes and cleaves non-phosphorylated FRET-peptides. Phosphorylation of FRET-peptides suppresses cleavage by the Development Reagent. Cleavage disrupts FRET between the donor (i.e., coumarin) and acceptor (i.e., fluorescein) fluorophores on the FRET-peptide, whereas uncleaved, phosphorylated FRET-peptides maintain FRET. A ratiometric method, which calculates the ratio (the Emission Ratio) of donor emission to acceptor emission after excitation of the donor fluorophore at 400 nm, is used to quantitate reaction progress, as shown in the equation below.
(§4) The Test Compounds are screened at 1 μM.
The 2×CHEK1 (CHK1) (# P 3040)/Ser/Thr 19 (Z′-LYTE® Kinase Assay Kit—Ser/Thr 19 Peptide, # PV 4529) mixture is prepared in 50 mM HEPES pH 7.5, 0.01% BRIJ-35, 10 mM MgCl2, 1 mM EGTA. The final 10 μL Kinase Reaction consists of 2.04-35 ng CHEK1 (CHK1) and 2 μM Ser/Thr 19 in 50 mM HEPES pH 7.5, 0.01% BRIJ-35, 10 mM MgCl2. 1 mM EGTA. After the 1 hour Kinase Reaction incubation, 5 μL of a 1:256 dilution of Development Reagent A is added.

STK3 (MST2) = target: T2, STK3 (MST2) (Homo sapiens, UniProt Q13188); test: Z'-LYTE kinase selectivity assay STK3
T2 construct: purchased Life Technologies PV 4805
T2 sequence (Q13188 1-491): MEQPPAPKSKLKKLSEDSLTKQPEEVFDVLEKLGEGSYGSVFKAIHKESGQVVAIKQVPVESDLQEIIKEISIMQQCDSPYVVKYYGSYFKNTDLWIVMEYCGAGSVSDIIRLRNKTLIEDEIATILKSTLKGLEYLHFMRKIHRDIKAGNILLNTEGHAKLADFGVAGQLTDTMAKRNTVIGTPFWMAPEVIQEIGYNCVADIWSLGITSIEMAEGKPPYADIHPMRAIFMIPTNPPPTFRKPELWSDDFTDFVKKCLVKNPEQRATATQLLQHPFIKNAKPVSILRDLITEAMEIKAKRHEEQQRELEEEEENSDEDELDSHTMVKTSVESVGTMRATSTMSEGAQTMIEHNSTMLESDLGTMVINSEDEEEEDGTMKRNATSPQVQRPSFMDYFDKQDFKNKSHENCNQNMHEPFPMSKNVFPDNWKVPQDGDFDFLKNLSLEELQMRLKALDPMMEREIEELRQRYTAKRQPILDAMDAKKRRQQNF
Text: as §1, §2, §3, §4
The 2×STK3 (MST2) (# PV 4805)/Ser/Thr 07 (Z′-LYTE® Kinase Assay Kit—Ser/Thr 7 Peptide, # PV 3180) mixture is prepared in 50 mM HEPES pH 6.5, 0.01% BRIJ-35, 10 mM MgCl2, 1 mM EGTA, 0.02% NaN3. The final 10 μL Kinase Reaction consists of 6.25-38.7 ng STK3 (MST2) and 2 μM Ser/Thr 07 in 50 mM HEPES pH 7.0, 0.01% BRIJ-35, 10 mM MgCl2, 1 mM EGTA, 0.01% NaN3. After the 1 hour Kinase Reaction incubation, 5 μL of a 1:65000 dilution of Development Reagent A is added.

FRAP1 (mTOR) = target: T3, FRAP1 (mTOR) (Homo sapiens, UniProt P42345); test: Z'-LYTE kinase selectivity assay FRAP1 (mTOR)
T3 construct: purchased Life Technologies PR8683B
Text: as §1, §2, §3, §4
The 2×FRAP1 (mTOR) (# PR8683B)/Ser/Thr 11 (Z′-LYTE® Kinase Assay Kit—Ser/Thr 11 Peptide, # PV 3670) mixture is prepared in 50 mM HEPES pH 7.5, 0.01% BRIJ-35, 10 mM MnCl2, 1 mM EGTA, 2 mM DTT, 0.02% NaN3. The final 10 μL Kinase Reaction consists of 11.1-56 ng FRAP1 (mTOR) and 2 μM Ser/Thr 11 in 50 mM HEPES pH 7.5, 0.01% BRIJ-35, 5 mM MgCl2, 5 mM MnCl2, 1 mM EGTA, 1 mM DTT, 0.01% NaN3. After the 1 hour Kinase Reaction incubation, 5 μL of a 1:16 dilution of Development Reagent B is added.

SRPK2 = target: T4, SRPK2 (Homo sapiens, UniProt P78362); test: Z'-LYTE kinase selectivity assay SRPK2
T4 construct: purchased Life Technologies PV 3829
T4 sequence (P78362 whole entry): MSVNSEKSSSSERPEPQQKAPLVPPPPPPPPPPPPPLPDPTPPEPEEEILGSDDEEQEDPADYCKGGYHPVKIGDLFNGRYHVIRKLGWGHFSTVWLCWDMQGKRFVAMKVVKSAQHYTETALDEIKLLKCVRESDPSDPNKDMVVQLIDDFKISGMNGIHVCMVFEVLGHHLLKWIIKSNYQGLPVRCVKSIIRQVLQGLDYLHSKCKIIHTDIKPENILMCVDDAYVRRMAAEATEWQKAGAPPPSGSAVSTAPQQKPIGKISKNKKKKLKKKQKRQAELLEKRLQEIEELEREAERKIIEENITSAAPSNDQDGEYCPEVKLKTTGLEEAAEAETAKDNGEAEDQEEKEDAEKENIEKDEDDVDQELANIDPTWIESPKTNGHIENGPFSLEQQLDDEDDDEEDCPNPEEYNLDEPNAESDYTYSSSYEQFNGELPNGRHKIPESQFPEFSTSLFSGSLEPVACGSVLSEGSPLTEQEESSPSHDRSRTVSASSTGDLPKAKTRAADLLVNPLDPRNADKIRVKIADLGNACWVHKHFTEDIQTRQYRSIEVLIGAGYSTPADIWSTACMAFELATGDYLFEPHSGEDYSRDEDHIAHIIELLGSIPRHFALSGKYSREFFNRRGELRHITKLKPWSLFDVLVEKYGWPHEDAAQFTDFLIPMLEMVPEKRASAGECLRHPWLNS
Text: as §1, §2, §3, §4
The 2×SRPK2 (# PV 3829)/Ser/Thr 07 (Z′-LYTE® Kinase Assay Kit—Ser/Thr 7 Peptide, # PV 3180) mixture is prepared in 50 mM HEPES pH 7.5, 0.01% BRIJ-35, 10 mM MgCl2, 1 mM EGTA. The final 10 μL Kinase Reaction consists of 3.76-52 ng SRPK2 and 2 μM Ser/Thr 07 in 50 mM HEPES pH 7.5, 0.01% BRIJ-35, 10 mM MgCl2, 1 mM EGTA. After the 1 hour Kinase Reaction incubation, 5 μL of a 1:65000 dilution of Development Reagent A is added.

**Q.** How did the inhibition at 1 µM (CHEK1 (CHK1)) turn out when `C[C@@H]1Cc2nn(C)c(-c3ccccc3)c2-c2nc(Nc3ccn(CCN4CCN(C)CC4)n3)ncc21` [Compound I-1] was run?
**A.** 11%

**Q.** And the inhibition at 1 µM (STK3 (MST2))?
**A.** 1%

**Q.** And the inhibition at 1 µM (FRAP1 (mTOR))?
**A.** -6%

**Q.** And the inhibition at 1 µM (SRPK2)?
**A.** 58%

**Q.** With `C[C@@H]1Cc2nn(C)c(-c3ccccc3)c2-c2nc(Nc3ccn(CCN4CCOCC4)n3)ncc21` [Compound I-2] as the molecule, how does the inhibition at 1 µM (CHEK1 (CHK1)) read?
**A.** 23%

**Q.** What about the inhibition at 1 µM (STK3 (MST2)) of the same molecule?
**A.** 5%

**Q.** And the inhibition at 1 µM (FRAP1 (mTOR))?
**A.** 1%

**Q.** What about the inhibition at 1 µM (SRPK2) of the same molecule?
**A.** 79%

**Q.** Which results are given for `C[C@@H]1Cc2nn(C)c(-c3ccccc3)c2-c2nc(Nc3ccn(CCN4CCN(CC(C)(C)O)CC4)n3)ncc21` [Compound I-3]?
**A.** inhibition at 1 µM (CHEK1 (CHK1)): 31%; inhibition at 1 µM (STK3 (MST2)): -1%; inhibition at 1 µM (FRAP1 (mTOR)): -10%; inhibition at 1 µM (SRPK2): 49%

**Q.** Which inhibition at 1 µM (CHEK1 (CHK1)) does the source give for `CC(O)CN1CCN(CCn2ccc(Nc3ncc4c(n3)-c3c(nn(C)c3-c3ccccc3)C[C@H]4C)n2)CC1` (stereo partly shown) [Compound I-7] here?
**A.** 38%

**Q.** And the inhibition at 1 µM (STK3 (MST2))?
**A.** 15%

**Q.** What about the inhibition at 1 µM (FRAP1 (mTOR)) of the same molecule?
**A.** 3%

**Q.** And the inhibition at 1 µM (SRPK2)?
**A.** 58%

**Q.** Which inhibition at 1 µM (CHEK1 (CHK1)) does the source give for `C[C@@H]1Cc2nn(C)c(-c3ccccc3)c2-c2nc(Nc3ccn(CCN4CCN(CC(=O)OC5CCOCC5)CC4)n3)ncc21` [Compound I-8] here?
**A.** 17%

**Q.** And the inhibition at 1 µM (STK3 (MST2))?
**A.** -1%

**Q.** And the inhibition at 1 µM (FRAP1 (mTOR))?
**A.** -8%

**Q.** What about the inhibition at 1 µM (SRPK2) of the same molecule?
**A.** 48%

**Q.** What does the source list for `C[C@@H]1Cc2nn(C)c(-c3ccccc3)c2-c2nc(Nc3ccn(CCN4CCN(CC5CCCO5)CC4)n3)ncc21` (stereo partly shown) [Compound I-9]?
**A.** inhibition at 1 µM (CHEK1 (CHK1)): 26%; inhibition at 1 µM (STK3 (MST2)): -15%; inhibition at 1 µM (FRAP1 (mTOR)): -12%; inhibition at 1 µM (SRPK2): 49%

**Q.** Which inhibition at 1 µM (CHEK1 (CHK1)) does the source give for `COCCN1CCN(CCn2ccc(Nc3ncc4c(n3)-c3c(nn(C)c3-c3ccccc3)C[C@H]4C)n2)CC1` [Compound I-11] here?
**A.** 25%

**Q.** What about the inhibition at 1 µM (STK3 (MST2)) of the same molecule?
**A.** -2%

**Q.** And the inhibition at 1 µM (FRAP1 (mTOR))?
**A.** -11%

**Q.** And the inhibition at 1 µM (SRPK2)?
**A.** 38%
